The source of these data is publication PMC6318789 (Journal of the American Chemical Society, 2015).

The experiment concerns the target p300 (Homo sapiens, UniProt Q09472). The format is binding.

Sequence of p300 (Q09472 323-423): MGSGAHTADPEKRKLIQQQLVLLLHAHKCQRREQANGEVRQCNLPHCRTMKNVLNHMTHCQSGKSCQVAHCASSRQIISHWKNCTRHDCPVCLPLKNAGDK
Sequence of p300 (Q16665 786-826 partner): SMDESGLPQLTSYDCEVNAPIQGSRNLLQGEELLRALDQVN

Consider `COc1ccc(C2(O)N=C3N=CC=C4c5ccccc5N=C2N43)cc1` (racemic) [compound 1, eudistidine A], for which the IC50 (in general, the concentration at which inhibition is half-maximal) is roughly 75 µM.
